Test results published in paper PMC7190724, “Improved GPCR ligands from nanobody tethering” (Nature Communications, 2020).
Values joined by “and” are separate entries in the source; they are usually repeats but may differ in a detail not shown here. Equal entries are not always repeated. Blank lines part the entries; values can stand above or below the compound they belong to. Where a SMILES comes first, the peptide text is derived from it. [ ]: non-standard residue; d: D form. Aib = CC(C)(N)C(=O)O

Columns and labels:
blood ionized calcium = assay: Calcemic response in mice (blood ionized calcium); assay type: in vivo, mouse; settings: for iCa measurement, blood ionized calcium: individual mouse
Description: Fig. 5 VHH conjugation potentiates an in vivo response. a Schematic of the experiment performed in mice. b Measurement of blood ionized calcium levels in mice injected with PTH and conjugates. Data presented is from a single experiment. The double line break represents a discontinuity in the Y-axis. Mice (CD1 females, 11 weeks) were injected subcutaneously with the indicated ligand (dose = 35 nmol/kg). Blood was drawn at the indicated time points and analyzed for ionized calcium levels. Data points indicate mean ± standard error of the mean (SEM), n = 4. A two-sided t-test without corrections for multiple comparisons was used for comparisons. *p = 0.005 vs. vehicle. ^#p = 0.015 vs. vehicle. ^●p = 0.038 vs. M-PTH(1-14). °p = 0.008 vs. M-PTH(1-14). The sequence of M-PTH(1-14) used here differs from PTH(1-14) in Fig. 2 and is UVUEIQLMHQXAKW where U is Aib and X is homoarginine. Source data are provided in the Source Data File. […] Traces for the calcemic responses of individual mice is found in Supplementary Fig. 18. Source data can be found in the Source Data file.
Mice (CD1 female, age 11 weeks) were treated in accordance with the ethical guidelines adopted by Massachusetts General Hospital. […] Peptides and conjugates were administered at doses that allowed for differentiation between compounds with differing levels of in vivo activity. Statistical analyses were performed assuming Gaussian distribution of data. Mice (n = 4 per compound) were injected subcutaneously with vehicle (10 mM citric acid/150 mM NaCl/0.05% Tween-80, pH 5.0) or vehicle containing PTH or conjugate at a dose of 35 nmol/kg body weight. […] Blood was withdrawn just before injection (t = 0) or at times thereafter. Tail vein blood was collected and immediately analyzed. Blood Ca^2+ concentration was measured with a Siemens RapidLab 348 Ca2+/pH analyzer.

hPTHR1 = target: T1, hPTHR1 (Homo sapiens, UniProt Q03431); assay: cAMP response (GloSensor luminescence), HEK293 stably expressing human PTHR1 (GP2.3); assay type: cell-based; settings: human PTHR1 cells
T1 construct: expressed in transfected cells; host or cells: HEK293 (clone GP2.3) with GloSensor cAMP reporter
T1 sequence (Q03431 27-593): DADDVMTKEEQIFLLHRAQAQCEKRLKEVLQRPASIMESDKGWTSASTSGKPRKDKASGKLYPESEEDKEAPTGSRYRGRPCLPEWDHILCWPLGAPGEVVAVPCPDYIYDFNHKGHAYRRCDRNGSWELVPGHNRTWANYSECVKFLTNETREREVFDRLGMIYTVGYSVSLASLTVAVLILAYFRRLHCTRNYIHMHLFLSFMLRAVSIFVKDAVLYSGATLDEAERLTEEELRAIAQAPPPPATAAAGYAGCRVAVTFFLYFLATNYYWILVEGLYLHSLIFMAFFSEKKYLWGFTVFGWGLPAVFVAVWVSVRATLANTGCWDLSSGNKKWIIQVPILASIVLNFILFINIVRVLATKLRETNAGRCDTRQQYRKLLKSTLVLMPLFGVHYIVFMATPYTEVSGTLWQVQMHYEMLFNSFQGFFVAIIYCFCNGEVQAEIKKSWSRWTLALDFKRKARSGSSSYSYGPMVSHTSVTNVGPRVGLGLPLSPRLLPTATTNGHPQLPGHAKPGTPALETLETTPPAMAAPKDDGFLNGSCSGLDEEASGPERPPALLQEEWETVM
Description: (§1) A HEK293 cell line stably expressing β-Arrestin2-YFP (GBR24) was constructed similarly. PTHR1_6E was produced using the Q5 Site-directed mutagenesis kit (NEB) and used to prepare a stably transfected HEK293-derived cell line. Annotated sequence data for all PTHR1 constructs are found in Supplementary Fig. 19. Aligned sequences of VHHs used in this study are shown in Supplementary Fig. 20.
(§2) These assays were performed as previously described. […] Confluent monolayers of cells were pre-incubated with CO2 independent medium containing D-luciferin (0.5 mM) at 37 °C until a stable baseline level of luminescence was established (20 min). Varying concentrations of ligands were then added, and the time course of luminescence response was recorded using BioTek plate reader.
(§3) Data were processed using Microsoft Excel and GraphPad Prism 6. Data from cAMP dose–response assays were analyzed using a sigmoidal dose–response model with variable slope. Data sets were statistically compared by using Student’s t test (two-tailed) assuming unequal variances for the two sets.

hPTHR2 = target: T2, hPTHR2 (Homo sapiens, UniProt P49190); assay: cAMP response (GloSensor luminescence), HEK293 stably expressing hPTHR2; assay type: cell-based; settings: for EC50: peak GloSensor luminescence, mean ± SD, n = 3-4, read-out: EC50, cAMP induction
T2 construct: expressed in transfected cells
Description: (§4) These assays were performed as previously described. Briefly, HEK-293-derived cell lines that stably express the Glosensor cAMP reporter (Promega Corp.)[30] and PTHR1, a PTHR1 variant, or PTHR2 were seeded into white sided 96-well plates (50,000 cells/well) and grown to confluency. Confluent monolayers of cells were pre-incubated with CO2 independent medium containing D-luciferin (0.5 mM) at 37 °C until a stable baseline level of luminescence was established (20 min). Varying concentrations of ligands were then added, and the time course of luminescence response was recorded using BioTek plate reader. The maximal luminescence response (observed 12–16 min after ligand addition) was used to construct dose-response data sets (Table 1, Supplementary Fig. 6).
as §3

PTHR1GFP = target: T3, PTHR1GFP (Homo sapiens, UniProt Q03431); assay: cAMP response (GloSensor luminescence), HEK293 stably expressing PTHR1GFP (GPG10); assay type: cell-based
T3 sequence (Q03431 27-593): T1 sequence (Q03431 27-593)
Description: as §4, §3
Supplementary Figure 1. […]
GFP variant known as pHluorin2 engrafted into the receptor(ref. 19, main text). c) HEK293 cells stably expressing PTHR1-GFP were treated with varied doses of the indicated peptides or conjugates and activation was assessed by measuring luminescence from a cAMP-activated luciferase variant. Values listed represent EC50 values (mean ± SD). Each value comes from ≥ 3 independent experiments. Further details, including the number of replicates for each measurement and the normalized maximal responses induced, are reported in Supplementary Table 1. […]
than 5% of the maximal response induced for that cell line.
Peptide or conjugate PTHR1GFP

PTHR1YFPΔECD = target: T4, PTHR1YFPΔECD (Homo sapiens, UniProt Q03431); assay: cAMP response (GloSensor luminescence), HEK293 stably expressing PTHR1YFPΔECD (GD5Y); assay type: cell-based; settings: peak GloSensor luminescence; mean ± SD, ≥3 independent experiments; read-out: EC50, cAMP induction
T4 construct: expressed in transfected cells; host or cells: HEK293 (clone GD5Y) with GloSensor cAMP reporter
T4 sequence (Q03431 with tags, fused parts or gaps limits assumed): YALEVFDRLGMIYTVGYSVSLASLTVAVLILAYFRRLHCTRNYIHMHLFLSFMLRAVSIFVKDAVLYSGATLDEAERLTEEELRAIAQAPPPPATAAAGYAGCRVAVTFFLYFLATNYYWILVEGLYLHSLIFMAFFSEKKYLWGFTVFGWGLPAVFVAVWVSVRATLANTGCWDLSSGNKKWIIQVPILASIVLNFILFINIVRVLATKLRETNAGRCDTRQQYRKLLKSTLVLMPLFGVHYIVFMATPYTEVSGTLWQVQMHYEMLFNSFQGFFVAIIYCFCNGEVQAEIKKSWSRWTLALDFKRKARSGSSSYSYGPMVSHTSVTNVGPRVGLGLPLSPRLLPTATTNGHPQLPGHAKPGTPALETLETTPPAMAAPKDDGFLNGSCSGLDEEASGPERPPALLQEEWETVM
Description: as §1, §2, §3

T2 sequence (P49190 25-550): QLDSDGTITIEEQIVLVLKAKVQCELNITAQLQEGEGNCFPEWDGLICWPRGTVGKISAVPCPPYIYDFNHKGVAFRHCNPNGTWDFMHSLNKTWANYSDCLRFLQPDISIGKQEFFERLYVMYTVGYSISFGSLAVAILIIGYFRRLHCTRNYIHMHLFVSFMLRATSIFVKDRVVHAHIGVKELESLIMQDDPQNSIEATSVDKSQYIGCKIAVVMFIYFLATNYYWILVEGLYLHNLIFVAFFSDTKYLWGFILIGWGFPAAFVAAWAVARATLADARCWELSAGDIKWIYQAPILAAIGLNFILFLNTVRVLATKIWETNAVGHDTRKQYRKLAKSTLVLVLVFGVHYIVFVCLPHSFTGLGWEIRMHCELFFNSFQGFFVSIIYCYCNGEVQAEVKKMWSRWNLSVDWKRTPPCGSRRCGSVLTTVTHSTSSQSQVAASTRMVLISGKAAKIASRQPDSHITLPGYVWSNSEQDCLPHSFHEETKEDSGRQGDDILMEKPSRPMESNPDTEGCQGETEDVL

Compound: UVUEIQLMHQXAKW [M-PTH(1-14), modified PTH(1-14) analog used in mice, UVUEIQLMHQXAKW, U is Aib and X is homoarginine]
- blood ionized calcium response (blood ionized calcium; 35 nmol/kg s.c., CD1 female mice, n = 4, single experiment): little if any activity
- iCa measurement, blood ionized calcium (blood ionized calcium; 1 h after 35 nmol/kg s.c., 1st of 4 in group (mouse # 5, 9, 13)): 1.36 mM
- iCa measurement, blood ionized calcium (blood ionized calcium; 1 h after 35 nmol/kg s.c., 2nd of 4 in group (mouse # 6, 10, 14)): 1.34 mM
- iCa measurement, blood ionized calcium (blood ionized calcium; 1 h after 35 nmol/kg s.c., 3rd of 4 in group (mouse # 7, 11, 15)): 1.29 mM
- iCa measurement, blood ionized calcium (blood ionized calcium; 1 h after 35 nmol/kg s.c., 4th of 4 in group (mouse # 8, 12, 16)): 1.33 mM
- iCa measurement, blood ionized calcium (blood ionized calcium; 2 h after 35 nmol/kg s.c., 1st of 4 in group (mouse # 5, 9, 13)): 1.31 mM
- iCa measurement, blood ionized calcium (blood ionized calcium; 2 h after 35 nmol/kg s.c., 2nd of 4 in group (mouse # 6, 10, 14)): 1.32 mM
- iCa measurement, blood ionized calcium (blood ionized calcium; 2 h after 35 nmol/kg s.c., 3rd of 4 in group (mouse # 7, 11, 15)): 1.27 mM
- iCa measurement, blood ionized calcium (blood ionized calcium; 2 h after 35 nmol/kg s.c., 4th of 4 in group (mouse # 8, 12, 16)): 1.28 mM
- ionized Ca, group value quoted by reviewer (blood ionized calcium; 2h after injection, 35 nmol/kg s.c.): 1.29 mM
- iCa measurement, blood ionized calcium (blood ionized calcium; 4 h after 35 nmol/kg s.c., 1st of 4 in group (mouse # 5, 9, 13)): 1.31 mM
- iCa measurement, blood ionized calcium (blood ionized calcium; 4 h after 35 nmol/kg s.c., 2nd of 4 in group (mouse # 6, 10, 14)): 1.33 mM
- iCa measurement, blood ionized calcium (blood ionized calcium; 4 h after 35 nmol/kg s.c., 3rd of 4 in group (mouse # 7, 11, 15)): 1.29 mM
- iCa measurement, blood ionized calcium (blood ionized calcium; 4 h after 35 nmol/kg s.c., 4th of 4 in group (mouse # 8, 12, 16)): 1.29 mM
- iCa measurement, blood ionized calcium (blood ionized calcium; 8 h after 35 nmol/kg s.c., 1st of 4 in group (mouse # 5, 9, 13)): 1.33 mM
- iCa measurement, blood ionized calcium (blood ionized calcium; 8 h after 35 nmol/kg s.c., 2nd of 4 in group (mouse # 6, 10, 14)): 1.30 mM
- iCa measurement, blood ionized calcium (blood ionized calcium; 8 h after 35 nmol/kg s.c., 3rd of 4 in group (mouse # 7, 11, 15)): 1.28 mM
- iCa measurement, blood ionized calcium (blood ionized calcium; 8 h after 35 nmol/kg s.c., 4th of 4 in group (mouse # 8, 12, 16)): 1.30 mM

- cAMP activity (hPTHR1): reduction in potency
Compound: G3-PTH(1-14): PTH(1-14) analog with an N-terminal triglycine extension (SVSEIQLMHNLGKH; N-terminal triglycine extension; UniProt P01270 32-45, looked up, fragment)

Compound: CC[C@H](C)[C@H](NC(=O)[C@H](CCC(=O)O)NC(=O)C(C)(C)NC(=O)[C@@H](NC(=O)[C@H](C)N)C(C)C)C(=O)N[C@@H](CCC(N)=O)C(=O)N[C@@H](CC(C)C)C(=O)N[C@@H](CCSC)C(=O)N[C@@H](Cc1c[nH]cn1)C(=O)N[C@@H](CCC(N)=O)C(=O)N[C@@H](CCCNC(=N)N)C(=O)N[C@@H](CS)C(N)=O [PTH(1-11)] (H-AV[Aib]EIQLMHQRC-NH2)
- response at 100 uM (hPTHR2; 100 uM): 20%
- EC50 (hPTHR2): > 100000 nM
- EC50 (PTHR1GFP): 79 ± 45 nM
- EC50 (PTHR1YFPΔECD): 246 nM

Compound: CC[C@H](C)[C@H](NC(=O)[C@H](CCC(=O)O)NC(=O)[C@H](CO)NC(=O)[C@@H](NC(=O)[C@@H](N)CO)C(C)C)C(=O)N[C@@H](CCC(N)=O)C(=O)N[C@@H](CC(C)C)C(=O)N[C@@H](CCSC)C(=O)N[C@@H](Cc1c[nH]cn1)C(=O)N[C@@H](CC(N)=O)C(=O)N[C@@H](CC(C)C)C(=O)NCC(=O)N[C@@H](CCCCN)C(=O)N[C@@H](Cc1c[nH]cn1)C(=O)N[C@@H](CC(C)C)C(=O)N[C@@H](CC(N)=O)C(=O)N[C@@H](CO)C(=O)N[C@@H](CCSC)C(=O)N[C@@H](CCC(=O)O)C(=O)N[C@@H](CCCNC(=N)N)C(=O)N[C@H](C(=O)N[C@@H](CCC(=O)O)C(=O)N[C@@H](Cc1c[nH]c2ccccc12)C(=O)N[C@@H](CC(C)C)C(=O)N[C@@H](CCCNC(=N)N)C(=O)N[C@@H](CCCCN)C(=O)N[C@@H](CCCCN)C(=O)N[C@@H](CC(C)C)C(=O)N[C@@H](CCC(N)=O)C(=O)N[C@@H](CC(=O)O)C(=O)N[C@H](C(=O)N[C@@H](Cc1c[nH]cn1)C(=O)N[C@@H](CC(N)=O)C(=O)N[C@@H](Cc1ccccc1)C(=O)N[C@@H](CS)C(N)=O)C(C)C)C(C)C [PTH(1-34)]
- EC50 (hPTHR2): 1.45 ± 2.42 nM
- EC50 (PTHR1GFP): 0.4 ± 0.8 nM
- EC50 (PTHR1YFPΔECD): > 500 nM and 689 nM
